From patent US20250161338A1, “Compounds for Anti-aging Intervention” (AGENCY FOR SCIENCE, TECHNOLOGY AND RESEARCH, priority 2022, published 2025) come the findings set out here.

Data set [1] deals with prototrophic yeast strain (CEN.PK113-7D). The experiment in a line: Propidium iodide fluorescence-based CLS method in yeast (incl. high-throughput screening).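 For PI intensity: untreated reference is eight DMSO and water control wells per plate.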 Format: cell-based, Saccharomyces cerevisiae. Conditions: concentration tested 100 μM; for Yeast CLS increase: Yes/No call of the screen; for PI intensity: solvent DMSO or water, chronological age point Day 7 (72 h growth = Day 1), lower = more survival. The method, then:
Yeast strain was recovered from frozen glycerol stock at 30° C. on YPD agar medium. Yeast was left to propagate in SD medium overnight at 30° C. with shaking at 220 revolutions per minute (rpm). Cells propagated overnight were diluted to a starting optical density at 600 nm (OD600) of approximately 0.2 in fresh SD medium to begin the chronological lifespan (CLS) experiments.
(§1) CLS experiments were performed in 96-well plates with 200 μL yeast culture. Cellular inoculums were transferred into 96-well plates containing serially double-diluted concentrations (0 to 10 nM) of rapamycin. Cellular inoculum was transferred into 96-well plates containing serially double-diluted concentrations (0 to 8 mM) of 2,5-anhydro-D-mannitol, D-fructose, D-mannitol, D-maltose, and D-sorbitol in SD medium. Cells were incubated at 30° C., and the growth was measured at different time points. […] Cell survival was quantified at various age time points by three different approaches: (i) PI fluorescence-based method, (ii) outgrowth in YPD liquid medium, and (iii) spotting assay (FIG. 1).
Yeast cells (40 μL) from different age time points were transferred into a second 96-well plate (different to the 96-well plate in which the CLS analysis as outlined above was performed). Cells were washed and incubated in 100 μL 1×phosphate buffered saline (PBS) with propidium iodide (PI) (5 μg/mL) for 15 minutes in the dark. Positive and negative control samples were included for quantitative analysis. Positive control (cells boiled at 100° C. for 15 minutes) was PI-stained and processed in the same 96-well plate. Samples without PI-stained cells served as the negative control. After incubation, cells were washed and resuspended in 100 μL PBS. The fluorescence reading of the samples (excitation and emission wavelengths at 535 nm and 617 nm, respectively) and OD600 were measured with a microplate reader (BioTek, Winooski, Vermont, United States). The fluorescence intensity of each sample was normalized with OD600. The background fluorescence signal of the unstained negative sample was subtracted from the normalized fluorescence intensity of each sample. The obtained fluorescence intensity of the positive control (boiled dead cells) was considered 0% cell survival. Cell death was validated by allowing the boiled dead cells to grow in medium. Cell survival at different age time points of samples were calculated by normalizing the fluorescence intensity with positive control sample (boiled cells).
High-throughput screening of various chemicals was tested using the same protocol for the propidium iodide fluorescence-based method as described above. The prototrophic yeast strain (CEN.PK113-7D) was grown in the synthetic defined medium with different chemical reagents at their respective single testing concentration (Table 1) in addition to eight replicates of DMSO and water controls in 96-well plates at 30° C.

Data set [2] has the same test system. The experiment in a line: Yeast outgrowth in YPD liquid medium (CLS of aged cells). The settings on record: concentration tested 100 μM; OD600 nm after 24 h in YPD at 30° C.; age point day 14. Format: cell-based, Saccharomyces cerevisiae. Here is the method: as §1
Outgrowth (OD600) of aged cells was measured by the microplate reader. Quantification of cell survival for each age point was determined as relative to Day 1 (considered 100% cell survival). This quantification was performed by using the formula,
[formula] • where OutgrowthDay n refers to the OD600 nm absorbance reading recorded on a specific day, OutgrowthDay 1 refers to the OD600 nm absorbance reading recorded on the first day where 100% cell survival is assumed.
The CLS of the aged cells was further determined by the yeast outgrowth in YPD liquid medium method as described above. […] At chronological age point day 14, 3-μL of culture were transferred to a second 96-well plate containing 200 μL YPD medium.

Where a name gives a salt, the structure may show the parent alone.

Take `C/C(=C\C(=O)OCCCCCCCCC(=O)O)C[C@@H]1OC[C@H](C[C@@H]2O[C@H]2[C@@H](C)[C@H](C)O)[C@@H](O)[C@H]1O` [Mupirocin, reference compound]: in data set [1], the “Yeast CLS increase” value is given as “No” and the PI intensity is 68,477.7. The molecule also returned an Outgrowth in data set [2] of 0.1.
For `O=C(O)c1ccc(O)cc1O` [2,4-Dihydroxybenzoic acid], in data set [1], the “Yeast CLS increase” value is reported as “No” and the PI intensity is on record as 76,326.3. For the same molecule, the Outgrowth in data set [2] is 0.1.
The matching figures for `O=C[C@H](O)[C@H](O)[C@H](O)CO` (single isomer, unassigned) [D-Ribose(mixture of isomers)]: “No”, 60,023.1 and 0.1.
Regarding `CC(C)(CO)C(O)C(=O)NCCCO` (racemic) [DL-Panthenol], in data set [1], the “Yeast CLS increase” value was “No” and the PI intensity was 71,468.6. The Outgrowth in data set [2] was 0.1.
Take `COc1cc(O)c(C(C)=O)c(OC)c1` [Xanthoxylin]: in data set [1], the “Yeast CLS increase” value was “No” and the PI intensity is on record as 70,352.1. This molecule had an Outgrowth in data set [2] of 0.1.
The matching figures for `O=C(/C=C/c1ccc(O)c(O)c1)O[C@@H]1C[C@](O)(C(=O)O)C[C@@H](O)[C@H]1O` [Chlorogenic acid]: “No”, 66,593.5 and 0.1.
In the case of `O=C(O)[C@@H](O)Cc1ccccc1` [(S)-2-Hydroxy-3-phenylpropanoic acid], in data set [1], the “Yeast CLS increase” value was “No” and the PI intensity is 72,969.5. This molecule registered an Outgrowth in data set [2] of 0.1.
The matching figures for `OC[C@H]1O[C@@H](Oc2cc3c(O)cc(O)cc3[o+]c2-c2ccc(O)c(O)c2)[C@H](O)[C@@H](O)[C@H]1O.[Cl-]` [Cyanidin-3-O-galactoside (chloride)]: “No”, 63,761.1 and 0.1.
For `O=C(O)/C=C/CCCCCCCO` [Royal Jelly acid], in data set [1], the “Yeast CLS increase” value is listed as “No” and the PI intensity is given as 65,406.1. Further, in data set [2], the Outgrowth was 0.1.
The matching figures for `Oc1ccc2ccccc2c1` [2-Naphthol]: “No”, 72,298.9 and 0.1.
As to `Cc1cc2nc3c(=O)[nH]c(=O)nc-3n(C[C@H](O)[C@H](O)[C@H](O)COP(=O)(O)OP(=O)(O)OC[C@H]3O[C@@H](n4cnc5c(N)ncnc54)[C@H](O)[C@@H]3O)c2cc1C` [Flavin adenine dinucleotide (disodium salt)], in data set [1], the “Yeast CLS increase” value is given as “No” and the PI intensity was 59,508.7. Besides, the Outgrowth in data set [2] is 0.2.
The matching figures for `O=C(/C=C/c1ccc(O)c(O)c1)O[C@H]1[C@H](O)C[C@](O)(C(=O)O)C[C@H]1O` [Cryptochlorogenic acid]: “No”, 65,040.0 and 0.1.
The corresponding values for `C[C@@H]1CC[C@@]2(OC1)O[C@H]1C[C@H]3[C@@H]4CC=C5C[C@@H](O[C@@H]6O[C@H](CO)[C@@H](O[C@@H]7O[C@H](CO)[C@@H](O)[C@H](O)[C@H]7O)[C@H](O)[C@H]6O[C@@H]6O[C@@H](C)[C@H](O)[C@@H](O)[C@H]6O)CC[C@]5(C)[C@H]4CC[C@]3(C)[C@H]1[C@@H]2C` [Deltonin] are “No”, 62,357.6 and 0.1.
The matching figures for `CCOC(=O)c1ccc(O)cc1` [Ethylparaben]: “No”, 52,097.7 and 0.1.
Turning to `CC1=C(/C=C/C(C)=C/C=C/C(C)=C/C(=O)O)C(C)(C)CCC1` [Retinoic acid, reference compound], in data set [1], the PI intensity is 85,242.6. The same molecule had an Outgrowth in data set [2] of 0.1.
`Nc1ccccc1C(=O)C[C@H](N)C(=O)O` [L-Kynurenine]: in data set [1], the “Yeast CLS increase” value is “No” and the PI intensity was 72,824.1. The molecule further displayed an Outgrowth in data set [2] of 0.1.
The matching figures for `O=C(O)CCCCCCCCCCCC(=O)O` [Tridecanedioic acid]: “No”, 80,407.7 and 0.1.
In the case of `CC[C@H]1CN2CCc3cc(OC)c(OC)cc3[C@@H]2C[C@@H]1C[C@H]1NCCc2cc(OC)c(OC)cc21` [Emetine (dihydrochloride hydrate), reference compound], in data set [1], the “Yeast CLS increase” value is recorded as “No” and the PI intensity is 75,341.5. In data set [2], this molecule showed an Outgrowth of 0.1.
As to `CC[C@H]1CN2CC[C@]3(C(=O)Nc4ccccc43)[C@@H]2C[C@@H]1/C(=C\OC)C(=O)OC` [Rhynchophylline], in data set [1], the “Yeast CLS increase” value is “No” and the PI intensity is 55,562.5. For the same molecule, the Outgrowth in data set [2] was 0.1.
With `O=C1NC(c2ccccc2)(c2ccccc2)C(=O)N1COP(=O)(O)O` [Fosphenytoin (disodium), reference compound], in data set [1], the “Yeast CLS increase” value was “No” and the PI intensity is 61,860.0. This molecule also gave an Outgrowth in data set [2] of 0.1.
Regarding `CC(=O)OCC(=O)[C@@]1(OC(C)=O)[C@@H](C)C[C@H]2[C@@H]3C[C@H](F)C4=CC(=O)C=C[C@]4(C)[C@@]3(F)[C@@H](O)C[C@@]21C` [Diflorasone, reference compound], in data set [1], the “Yeast CLS increase” value was “No” and the PI intensity is on record as 71,051.3. The Outgrowth in data set [2] turned out to be 0.1.
For the molecule `C[C@H](CCC(=O)NCC(=O)O)[C@H]1CC[C@H]2[C@@H]3[C@@H](O)C[C@@H]4C[C@H](O)CC[C@]4(C)[C@H]3CC[C@]12C` [Glycoursodeoxycholic acid], in data set [1], the “Yeast CLS increase” value is on record as “No” and the PI intensity is on record as 64,205.2. This molecule yielded an Outgrowth in data set [2] of 0.1.
The corresponding values for `C[C@]12CCC(=O)C=C1C=C[C@@H]1[C@@H]2CC[C@@]2(C)[C@H]1CC[C@@]21CCC(=O)O1` [Canrenone, reference compound] are “No”, 64,295.2 and 0.1.
Take `N[C@H](C(=O)O)[C@@H]1CC(Cl)=NO1` [Acivicin]: in data set [1], the “Yeast CLS increase” value is “Yes” and the PI intensity was 41,066.2. This molecule registered an Outgrowth in data set [2] of 1.0.
The corresponding values for `Cc1nc(C)c(C)nc1C` [Tetramethylpyrazine] are “No”, 62,003.6 and 0.1.
Regarding `C[C@H](O)[C@H](O)c1cnc2nc(N)[nH]c(=O)c2n1` [6-Biopterin], in data set [1], the “Yeast CLS increase” value is listed as “No” and the PI intensity is reported as 75,974.5. For the same molecule, the Outgrowth in data set [2] is recorded as 0.1.
The corresponding values for Aprotinin are “No”, 70,144.6 and 0.1.
On to `COC(=O)CC(C)=O` [Methyl acetylacetate], for which, in data set [1], the “Yeast CLS increase” value is listed as “No” and the PI intensity is 64,956.3. Further, in data set [2], the Outgrowth turned out to be 0.1.
The matching figures for `CC(C)CCC[C@](C)(O)[C@H]1CC[C@H]2[C@@H]3CC=C4C[C@@H](O)CC[C@]4(C)[C@H]3CC[C@@]21C` [20(S)-Hydroxycholesterol]: “No”, 75,450.9 and 0.1.
